Data published in PubChem BioAssay AID256 (DTP/NCI, 2004).
Values joined by “and” are separate entries in the source; they are usually repeats but may differ in a detail not shown here. Equal entries are not always repeated. Inconclusive results and toxic doses are left out. Rule for the calls: active = survival T/C of 150% or more; inactive = T/C below 125% in these data.

Tested on: CD2F1 mice, L1210 leukemia ip, survival T/C
Experiment: NCI In Vivo Anticancer Drug Screen. Data for tumor model L1210 Leukemia (intraperitoneal) in CD2F1 (CDF1) mice
Conditions: endpoint: mean survival time, higher = longer survival
How it was run: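 Mice carrying a transplanted tumor received test compound or vehicle alone. The value is the measurement in the treated group divided by that in the vehicle-treated control group.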

[1] = dose: 50.0 mg/kg/injection, schedule: Q04DX002 (ip), vehicle: saline with Tween-80
[2] = dose: 100.0 mg/kg/injection, schedule: Q01DX009 (ip), vehicle: saline with Tween-80
[3] = dose: 400.0 mg/kg/injection, schedule: Q04DX002 (ip), vehicle: saline with Tween-80
[4] = dose: 100.0 mg/kg/injection, schedule: Q04DX002 (ip), vehicle: saline with Tween-80

Measured: T/C

Cc1ccc(S(=O)(=O)NS(=O)(=O)c2ccc(C)cc2)cc1
inactive: dose: 25.0 mg/kg/injection, schedule: Q04DX003 (ip), vehicle: Klucel (hydroxypropylcellulose) (HPC) 106 % of control | dose: 50.0 mg/kg/injection, schedule: Q04DX003 (ip), vehicle: Klucel (hydroxypropylcellulose) (HPC) 100 % of control | dose: 75.0 mg/kg/injection, schedule: Q04DX003 (ip), vehicle: saline sonified 97 % of control | dose: 100.0 mg/kg/injection, schedule: Q04DX003 (ip), vehicle: Klucel (hydroxypropylcellulose) (HPC) 88 % of control | dose: 150.0 mg/kg/injection, schedule: Q04DX003 (ip), vehicle: saline sonified 95 % of control | dose: 300.0 mg/kg/injection, schedule: Q04DX003 (ip), vehicle: saline sonified 101 % of control

CCOC(=O)c1ccc(NC(=O)Nc2cc(Cl)c(Cl)cc2C)cc1
inactive: dose: 3.13 mg/kg/injection, schedule: Q01DX001 (ip), vehicle: saline with Tween-80 93 % of control | dose: 3.13 mg/kg/injection, schedule: Q04DX003 (ip), vehicle: saline with Tween-80 90 % of control | dose: 6.25 mg/kg/injection, schedule: Q01DX001 (ip), vehicle: saline with Tween-80 92 % of control | dose: 6.25 mg/kg/injection, schedule: Q01DX009 (ip), vehicle: saline with Tween-80 86 % of control and 89 % of control | dose: 6.25 mg/kg/injection, schedule: Q04DX002 (ip), vehicle: saline with Tween-80 91 % of control and 97 % of control | dose: 6.25 mg/kg/injection, schedule: Q04DX003 (ip), vehicle: saline with Tween-80 89 % of control | dose: 12.5 mg/kg/injection, schedule: Q01DX001 (ip), vehicle: saline with Tween-80 93 % of control | dose: 12.5 mg/kg/injection, schedule: Q01DX009 (ip), vehicle: saline with Tween-80 86 % of control | dose: 12.5 mg/kg/injection, schedule: Q04DX002 (ip), vehicle: saline with Tween-80 91 % of control | dose: 25.0 mg/kg/injection, schedule: Q04DX003 (ip), vehicle: saline with Tween-80 90 % of control | [1] 91 % of control | [2] 88 % of control | [3] 88 % of control

Cc1ccc(S(=O)(=O)C[n+]2ccccc2N)cc1
inactive: dose: 25.0 mg/kg/injection, schedule: Q04DX002 (ip), vehicle: saline with Tween-80 102 % of control | [1] 95 % of control | [4] 93 % of control and 95 % of control

CCOC(=O)C(C)(Br)C(=O)OCC
inactive: dose: 50.0 mg/kg/injection, schedule: Q01DX009 (ip), vehicle: saline with Tween-80 104 % of control | [2] 105 % of control

CN1N=C(N)c2cn(C3OC(CO)C4OC(C)(C)OC43)c3ncnc1c23 (stereo not given)
inactive: dose: 12.5 mg/kg/injection, schedule: Q01DX005 (ip), vehicle: water 87 % of control | dose: 25.0 mg/kg/injection, schedule: Q01DX005 (ip), vehicle: water 96 % of control | dose: 50.0 mg/kg/injection, schedule: Q01DX005 (ip), vehicle: water 104 % of control | dose: 100.0 mg/kg/injection, schedule: Q01DX005 (ip), vehicle: water 104 % of control

Nc1cccc2ccc(O)cc12
inactive: dose: 100.0 mg/kg/injection, schedule: Q01DX001 (ip), vehicle: Klucel (hydroxypropylcellulose) (HPC) 96 % of control | dose: 200.0 mg/kg/injection, schedule: Q01DX001 (ip), vehicle: Klucel (hydroxypropylcellulose) (HPC) 86 % of control | dose: 400.0 mg/kg/injection, schedule: Q01DX001 (ip), vehicle: Klucel (hydroxypropylcellulose) (HPC) 104 % of control

CC(C)=NNS(=O)(=O)c1ccc(C)cc1
inactive: dose: 25.0 mg/kg/injection, schedule: Q01DX009 (ip), vehicle: Klucel (hydroxypropylcellulose) (HPC) 102 % of control | dose: 50.0 mg/kg/injection, schedule: Q01DX009 (ip), vehicle: Klucel (hydroxypropylcellulose) (HPC) 96 % of control | dose: 100.0 mg/kg/injection, schedule: Q01DX009 (ip), vehicle: Klucel (hydroxypropylcellulose) (HPC) 93 % of control | dose: 200.0 mg/kg/injection, schedule: Q01DX009 (ip), vehicle: Klucel (hydroxypropylcellulose) (HPC) 86 % of control | dose: 400.0 mg/kg/injection, schedule: Q01DX009 (ip), vehicle: Klucel (hydroxypropylcellulose) (HPC) 91 % of control

O=C1C(C2CC3c4[nH]c5ccccc5c4CCN3C2=O)CC2c3[nH]c4ccccc4c3CCN12 (stereo not given)
inactive: [4] 93 % of control | dose: 200.0 mg/kg/injection, schedule: Q04DX002 (ip), vehicle: saline with Tween-80 93 % of control | [3] 93 % of control

Cn1nc(NC=O)c(C#N)c1C#N
inactive: dose: 37.5 mg/kg/injection, schedule: Q04DX002 (ip), vehicle: saline with Tween-80 102 % of control | dose: 75.0 mg/kg/injection, schedule: Q04DX002 (ip), vehicle: saline with Tween-80 102 % of control | dose: 150.0 mg/kg/injection, schedule: Q04DX002 (ip), vehicle: saline with Tween-80 98 % of control

CC(=O)NC1C(OC(C)=O)C(OC(C)=O)C(OC(C)=O)C(OC(C)=O)C1OC(C)=O (stereo not given)
inactive: dose: 100.0 mg/kg/injection, schedule: Q01DX001 (ip), vehicle: saline with Tween-80 97 % of control | dose: 200.0 mg/kg/injection, schedule: Q01DX001 (ip), vehicle: saline with Tween-80 93 % of control | dose: 400.0 mg/kg/injection, schedule: Q01DX001 (ip), vehicle: saline with Tween-80 93 % of control

[Br][Pt+2][Br].[NH-]c1cccc(F)c1.[NH-]c1cccc(F)c1
inactive: dose: 3.13 mg/kg/injection, schedule: Q04DX003 (ip), vehicle: distilled water + Tween-80 97 % of control | dose: 6.25 mg/kg/injection, schedule: Q04DX003 (ip), vehicle: distilled water + Tween-80 103 % of control | dose: 12.5 mg/kg/injection, schedule: Q04DX003 (ip), vehicle: distilled water + Tween-80 101 % of control | dose: 25.0 mg/kg/injection, schedule: Q04DX003 (ip), vehicle: distilled water + Tween-80 104 % of control | dose: 50.0 mg/kg/injection, schedule: Q04DX003 (ip), vehicle: distilled water + Tween-80 109 % of control | dose: 100.0 mg/kg/injection, schedule: Q04DX003 (ip), vehicle: distilled water + Tween-80 107 % of control

Cc1ccc2c(c1)N(CCCN(C)C)c1ccccc1S2
inactive: dose: 22.0 mg/kg/injection, schedule: Q04DX003 (ip), vehicle: saline 105 % of control | dose: 33.0 mg/kg/injection, schedule: Q04DX003 (ip), vehicle: saline 97 % of control | dose: 50.0 mg/kg/injection, schedule: Q04DX003 (ip), vehicle: saline 105 % of control | dose: 75.0 mg/kg/injection, schedule: Q04DX003 (ip), vehicle: saline 103 % of control

c1cc2c3c(c4sc5ccccc5c4cc3c1)CC2
inactive: dose: 12.5 mg/kg/injection, schedule: Q04DX003 (ip), vehicle: other 101 % of control | dose: 25.0 mg/kg/injection, schedule: Q04DX003 (ip), vehicle: other 115 % of control | dose: 50.0 mg/kg/injection, schedule: Q04DX003 (ip), vehicle: other 108 % of control | dose: 100.0 mg/kg/injection, schedule: Q04DX003 (ip), vehicle: other 115 % of control | dose: 200.0 mg/kg/injection, schedule: Q04DX003 (ip), vehicle: other 108 % of control

c1ccc2c[n+](CCCCCCCCCC[n+]3ccc4ccccc4c3)ccc2c1
inactive: dose: 8.0 mg/kg/injection, schedule: Q01DX001 (ip), vehicle: saline 88 % of control | dose: 32.0 mg/kg/injection, schedule: Q01DX001 (ip), vehicle: saline 88 % of control

N#Cc1ccc(C(Cl)(Cl)Cl)cc1
inactive: dose: 100.0 mg/kg/injection, schedule: Q04DX003 (ip), vehicle: saline with Tween-80 104 % of control | dose: 200.0 mg/kg/injection, schedule: Q04DX003 (ip), vehicle: saline with Tween-80 98 % of control | dose: 400.0 mg/kg/injection, schedule: Q04DX003 (ip), vehicle: saline with Tween-80 96 % of control
